Assay results from US20180297966A1, “COMPOUNDS, COMPOSITIONS, AND METHODS OF MAKING AND USING THE SAME” (INNOVATIVE ANESTHETICS, LLC, priority 2015, published 2018).
Values joined by “and” are separate entries in the source; they are usually repeats but may differ in a detail not shown here. Equal entries are not always repeated. Structures can show the parent of a compound that is named as a salt. Where two headings read alike, the source gives them in different places.

Columns and labels:
[1] = pH of exemplary salts with respect to concentration (% w/v); assay type: physicochemical
[2] = tested on: rats (hindpaw heat pain); assay: Hindpaw withdrawal latency to a thermal stimulus after injection of a caine salt; assay type: in vivo, Sprague Dawley rats; conditions: 1% by weight solution in water, 100 μl injected into hindpaw of rats, 10 minutes post-injection, compared to naïve animals, N=10 animals/group, cutoff 32 seconds
Description: Male Sprague Dawley® rats (200-300 g, Charles River) were housed in groups of two and were maintained in a standard 12-h light/dark cycle and testing was completed in the light portion of the cycle between 09:00-12:00. Animals were placed into the behavioural procedure room 30 min prior to testing to acclimate. When not in testing sessions, food and water were made available ad libitum. Animal testing procedures complied with the ethical guidelines and standards established by the University of Florida's Institutional Animal Care & Use Committee and with the Guide for Care and Use of Laboratory Animals (National Research Council Guide for the Care and Use of Laboratory Animals. Washington, D.C., National Academy Press; 1996.).
1% by weight solutions of 3a-3h were injected into the hindpaw of rats and withdrawal latency to a thermal stimulus was recorded 10 minutes post-injection. Response to hindpaw heat pain was determined by placing unrestrained rats on a clear glass platform under a small plastic cage and rats habituated for 5 min. A radiant heat source was aimed directly under the ventral hindpaw surface and the time to paw withdrawal was recorded. Baseline responses were obtained under naïve conditions (e.g., no injection), while post-treatment effects of caine salts 3a-3h in the respective vehicle (water) were assessed for 10 minutes following injection (100 μl). A cutoff of 32 seconds was used to prevent tissue damage.

CC1=CC(=O)NS(=O)(=O)O1.CCN(CC)CC(=O)Nc1c(C)cccc1C [Lidocaine acesulfamate]
pH [1]: 4.84 and 5.08 and 5.26

CNC[C@H](O)c1ccc(O)c(O)c1 [Epinephrine hydrochloride, reference compound]
pH ([1]; Conc. 2% w/v): 4.84 | pH ([1]; Conc. 5% w/v): 3.91 | pH ([1]; Conc. 10% w/v): 2.72

Cc1cccc(C)c1NC(=O)C1CCCCN1C (stereo not shown) [Mepivacaine hydrochloride, reference compound]
pH ([1]; Conc. 2% w/v): 4.53 | pH ([1]; Conc. 5% w/v): 3.77 | pH ([1]; Conc. 10% w/v): 3.73

Articaine Acesulfamate
withdrawal latency to a thermal stimulus [2]: significant increase in latency time

CC1=CC(=O)NS(=O)(=O)O1.Cc1cccc(C)c1NC(=O)C1CCCCN1C (stereo not shown) [Mepivacaine acesulfamate]
withdrawal latency to a thermal stimulus [2]: significant increase in latency time | pH ([1]; Conc. 2% w/v): 4.91 | pH ([1]; Conc. 5% w/v): 4.87 | pH ([1]; Conc. 10% w/v): 4.00

CCN(CC)CC(=O)Nc1c(C)cccc1C [Lidocaine hydrochloride, reference compound]
pH ([1]; Conc. 2% w/v): 4.65 | pH ([1]; Conc. 5% w/v): 4.53 | pH ([1]; Conc. 10% w/v): 3.94

CCCCN1CCCCC1C(=O)Nc1c(C)cccc1C (stereo not shown) [Bupivacaine hydrochloride, reference compound]
pH ([1]; Conc. 2% w/v): 5.22 | pH ([1]; Conc. 5% w/v): 4.81 | pH ([1]; Conc. 10% w/v): 4.23

Cc1cccc(C)c1NC(=O)C1CCCCN1C.O=C1NS(=O)(=O)c2ccccc21 (stereo not shown) [Mepivacaine saccharinate, Mepivacaine Saccharinate]
withdrawal latency to a thermal stimulus [2]: significant increase in latency time | pH [1]: 4.06 and 4.23

CC1=CC(=O)NS(=O)(=O)O1.CCCCN1CCCCC1C(=O)Nc1c(C)cccc1C (stereo not shown) [Bupivacaine acesulfamate, Bupivacaine Acesulfamate]
withdrawal latency to a thermal stimulus [2]: significant increase in latency time | pH [1]: 4.25 and 5.13 and 5.38

CCCNC(C)C(=O)Nc1c(C)csc1C(=O)OC.O=C1NS(=O)(=O)c2ccccc21 (stereo not shown) [Articaine saccharinate, Articaine Saccharinate]
withdrawal latency to a thermal stimulus [2]: significant increase in latency time | pH [1]: 3.83 and 4.15

CCN(CC)CC(=O)Nc1c(C)cccc1C.O=C1NS(=O)(=O)c2ccccc21 [Lidocaine saccharinate]
pH [1]: 4.31 and 4.41 and 4.51

CCCCN1CCCCC1C(=O)Nc1c(C)cccc1C.O=C1NS(=O)(=O)c2ccccc21 (stereo not shown) [Bupivacaine saccharinate, Bupivacaine Saccharinate]
withdrawal latency to a thermal stimulus [2]: significant increase in latency time | pH [1]: 3.84 and 3.66 and 5.19

CCCNC(C)C(=O)Nc1ccccc1C (stereo not shown) [Prilocaine hydrochloride, reference compound]
pH ([1]; Conc. 2% w/v): 4.60 | pH ([1]; Conc. 5% w/v): 3.42 | pH ([1]; Conc. 10% w/v): 2.10

CCCNC(C)C(=O)Nc1ccccc1C.O=C1NS(=O)(=O)c2ccccc21 (stereo not shown) [Prilocaine saccharinate, Prilocaine Saccharinate]
pH [1]: 4.47 and 4.96 and 5.04

CC1=CC([O-])=NS(=O)(=O)O1.[K+] [Potassium acesulfamate, potassium 6-methyl-1,2,3-oxathiazin-4-olate 2,2-dioxide, reference compound]
pH ([1]; Conc. 2% w/v): 5.98 | pH ([1]; Conc. 5% w/v): 6.33 | pH ([1]; Conc. 10% w/v): 5.78

CC1=CC(=O)NS(=O)(=O)O1.CNC[C@H](O)c1ccc(O)c(O)c1 [Epinephrine acesulfamate, Epinephrine Acesulfamate]
pH [1]: 4.01 and 4.14 and 4.34

CC1=CC(=O)NS(=O)(=O)O1.CCCNC(C)C(=O)Nc1ccccc1C (stereo not shown) [Prilocaine acesulfamate, Prilocaine Acesulfamate]
withdrawal latency to a thermal stimulus [2]: significant increase in latency time | pH ([1]; Conc. 2% w/v): 5.16 | pH ([1]; Conc. 5% w/v): 5.00 | pH ([1]; Conc. 10% w/v): 4.71

CCCNC(C)C(=O)Nc1c(C)csc1C(=O)OC (stereo not shown) [Articaine hydrochloride, reference compound]
pH ([1]; Conc. 2% w/v): 4.78 | pH ([1]; Conc. 5% w/v): 4.62 | pH ([1]; Conc. 10% w/v): 4.22

CNC[C@H](O)c1ccc(O)c(O)c1.O=C1NS(=O)(=O)c2ccccc21 [Epinephrine saccharinate, Epinephrine Saccharinate]
pH [1]: 3.57 and 4.03 and 4.41
